In ChEMBL document CHEMBL6078622, “Enhancing outer membrane permeability of tetracycline antibiotics in P. aeruginosa using TOB-CIP conjugates” (RSC Med Chem, 2024):
Active and inactive are the calls of the source. No cut-off for these calls is given here.

How the values were obtained:
Pseudomonas aeruginosa [1] = test: Synergistic antibacterial activity against Pseudomonas aeruginosa PA095 assessed as fold change in eravacycline MIC by CLSI based broth-microdilution method relative to eravacycline alone; type: functional
Pseudomonas aeruginosa [2] = test: Synergistic antibacterial activity against Pseudomonas aeruginosa PA264 in presence of minocycline by checkerboard assay; type: functional
Pseudomonas aeruginosa [3] = test: Antibacterial activity against Pseudomonas aeruginosa PA264 assessed as increase in bacterial load incubated for 2 hrs in presence of eravacycline by time kill assay; type: functional, organism-based
Pseudomonas aeruginosa [4] = test: Synergistic antibacterial activity against Pseudomonas aeruginosa PA264 in presence of eravacycline by checkerboard assay; type: functional
Pseudomonas aeruginosa [5] = test: Antibacterial activity against Pseudomonas aeruginosa PA095 assessed as eravacycline MIC by CLSI based broth-microdilution method; type: functional
HEK293 = test: Cytotoxicity against HEK293 cells assessed as reduction in cell viability at 162 uM; type: toxicity, cell-based; conditions: human, hek293, 162 µM
Pseudomonas aeruginosa [6] = test: Synergistic antibacterial activity against Pseudomonas aeruginosa PA101243 in presence of minocycline by checkerboard assay; type: functional
Pseudomonas aeruginosa [7] = test: Antibacterial activity against Pseudomonas aeruginosa PA259 assessed as inhibition of visible bacterial growth by CLSI based broth-microdilution method; type: functional
Pseudomonas aeruginosa [8] = test: Synergistic antibacterial activity against Pseudomonas aeruginosa PA262 assessed as fractional inhibitory concentration index in presence of minocycline by checkerboard assay; type: functional
Pseudomonas aeruginosa [9] = test: Synergistic antibacterial activity against Pseudomonas aeruginosa PA114228 assessed as fold change in tigecycline MIC by CLSI based broth-microdilution method relative to tigecycline alone; type: functional
Pseudomonas aeruginosa [10] = test: Synergistic antibacterial activity against Pseudomonas aeruginosa PA114228 assessed as fractional inhibitory concentration index in presence of minocycline by checkerboard assay; type: functional
Pseudomonas aeruginosa [11] = test: Synergistic antibacterial activity against Pseudomonas aeruginosa PA100036 in presence of tigecycline by checkerboard assay; type: functional
Pseudomonas aeruginosa [12] = test: Synergistic antibacterial activity against Pseudomonas aeruginosa PA264 assessed as fold change in minocycline MIC by CLSI based broth-microdilution method relative to minocycline alone; type: functional
Pseudomonas aeruginosa [13] = test: Antibacterial activity against Pseudomonas aeruginosa PA114228 assessed as eravacycline MIC by CLSI based broth-microdilution method; type: functional
Pseudomonas aeruginosa [14] = test: Antibacterial activity against Pseudomonas aeruginosa PA264 assessed as reduction in bacterial load incubated for 2 hrs in presence of eravacycline by time kill assay; type: functional, organism-based
Pseudomonas aeruginosa [15] = test: Antibacterial activity against Pseudomonas aeruginosa PA259 assessed as tigecycline MIC by CLSI based broth-microdilution method; type: functional

Cl.Cl.Cl.Cl.Cl.Cl.NC[C@H]1O[C@H](O[C@H]2[C@H](OCCCCCCCCCCCCNC(=O)c3cn(C4CC4)c4cc(N5CCNCC5)c(F)cc4c3=O)[C@@H](O[C@H]3O[C@H](CO)[C@@H](O)[C@H](N)[C@H]3O)[C@H](N)C[C@@H]2N)[C@H](N)C[C@@H]1O
fold change (FC) (Pseudomonas aeruginosa [1]): 4
MIC (Pseudomonas aeruginosa [2]): 8 µg/mL
Activity (Pseudomonas aeruginosa [3]): Active
MIC (Pseudomonas aeruginosa [4]): 8 µg/mL
MIC (Pseudomonas aeruginosa [5]): 1 µg/mL
Activity (HEK293): 60%
MIC (Pseudomonas aeruginosa [6]): 8 µg/mL
MIC (Pseudomonas aeruginosa [7]): > 128 µg/mL
fractional inhibitory concentration index (FICI) (Pseudomonas aeruginosa [8]): 0.008
fold change (FC) (Pseudomonas aeruginosa [9]): 128
fractional inhibitory concentration index (FICI) (Pseudomonas aeruginosa [10]): 0.008
MIC (Pseudomonas aeruginosa [11]): 8 µg/mL
fold change (FC) (Pseudomonas aeruginosa [12]): 128
MIC (Pseudomonas aeruginosa [13]): 4 µg/mL
Activity (Pseudomonas aeruginosa [14]): Active
MIC (Pseudomonas aeruginosa [15]): 0.5 µg/mL
